Consider three compounds from BindingDB's records for doi:10.1016/j.bmc.2006.10.040 (University of Camerino, 2007).

Assay [1] concerns the target T1, Muscarinic acetylcholine receptor M5 (Homo sapiens, UniProt P08912).
T1 sequence (P08912 whole entry): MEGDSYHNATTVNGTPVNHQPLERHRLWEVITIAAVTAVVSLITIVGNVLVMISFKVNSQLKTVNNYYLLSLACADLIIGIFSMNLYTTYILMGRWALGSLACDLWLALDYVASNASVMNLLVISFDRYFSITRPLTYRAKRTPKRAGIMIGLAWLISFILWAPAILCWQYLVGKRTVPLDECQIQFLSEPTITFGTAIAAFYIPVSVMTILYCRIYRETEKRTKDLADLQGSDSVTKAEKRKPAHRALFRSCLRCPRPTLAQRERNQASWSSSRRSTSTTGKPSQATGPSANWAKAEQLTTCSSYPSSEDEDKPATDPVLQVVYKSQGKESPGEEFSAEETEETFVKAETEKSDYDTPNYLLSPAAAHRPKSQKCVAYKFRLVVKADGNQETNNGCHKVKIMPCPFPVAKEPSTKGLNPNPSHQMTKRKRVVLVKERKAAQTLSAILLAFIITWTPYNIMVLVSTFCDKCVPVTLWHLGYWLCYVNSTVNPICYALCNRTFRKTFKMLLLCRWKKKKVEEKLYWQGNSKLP
Nature of the assay: Agonist activity at human muscarinic M5 receptor expressed in CHO cells.

The target of assay [2] is T2, Muscarinic acetylcholine receptor M2 (Homo sapiens, UniProt P08172).
T2 sequence (P08172 whole entry): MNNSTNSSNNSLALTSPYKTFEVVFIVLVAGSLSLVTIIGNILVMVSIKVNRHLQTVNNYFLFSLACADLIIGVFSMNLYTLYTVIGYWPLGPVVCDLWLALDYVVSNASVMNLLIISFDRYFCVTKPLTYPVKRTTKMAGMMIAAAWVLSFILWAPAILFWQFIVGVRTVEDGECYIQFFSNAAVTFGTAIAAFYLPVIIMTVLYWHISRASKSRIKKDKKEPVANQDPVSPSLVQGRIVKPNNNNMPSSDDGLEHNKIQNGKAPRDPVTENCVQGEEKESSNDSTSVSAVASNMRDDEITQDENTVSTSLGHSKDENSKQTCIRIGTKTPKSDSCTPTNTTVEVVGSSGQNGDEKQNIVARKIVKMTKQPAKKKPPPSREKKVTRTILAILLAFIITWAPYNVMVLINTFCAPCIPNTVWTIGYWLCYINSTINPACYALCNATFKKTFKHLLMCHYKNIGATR
Nature of the assay: Agonist activity at human muscarinic M2 receptor expressed in CHO cells.

Molecules are shown by their SMILES.

In general, EC50 refers to the concentration needed to bring the measured effect to its halfway point. A higher EC50 goes with lower potency in that assay.

For `CC1COCC(C[N+](C)(C)C)O1` (centres undefined), a half-maximal response in assay [1] (EC50) required 7.94 µM.

`C[C@@H]1COC[C@H](C[N+](C)(C)C)O1` displayed an EC50 in assay [2] of 15.4 µM. `C[C@H]1COC[C@@H](C[N+](C)(C)C)O1`: the results for the EC50 in assay [2] and in assay [1] were 37.1 µM and 3.71 µM, respectively.
